Assay results taken from US8535661B2, “Enzymatically active compositions for suppressing sulfide generation and methods of use thereof” (LCP Tech Holdings LLC, priority 2007, dated 2013).

How the values were obtained:
[1] = system: Sulfide-Producing Bacteria; settings: reported biocide treatment levels; cited from earlier work
[2] = system: bacteria; experiment: Bacterial counts in treated contaminated metalworking fluid samples; assay type: cell-based
Description: (§1) A used metalworking fluid from a Midwest automotive plant and a soluble oil having a high sulfate content were used to prepare synthetic effluent by combining about 200 ml of the oil with about four gallons (about 15 L) of water and one gallon (about 3.84 L) of the contaminated metal working fluid. The mixture was allowed to stand for about ten days and smelled of hydrogen sulfide by the end of this period. The mixture was then stirred and 15 samples (about 500 mL each) were removed and placed in separate containers. The containers were allowed to stand, open to the air, for about 4 additional days, after which time the aerobic bacterial count in each of the sample was measured using Biosan BF test strips. All of the samples contained >10′ bacteria/mL and smelled of hydrogen sulfide, indicating the presence of anaerobic bacteria, as well. The 15 samples, at neutral pH, were then individually treated with different biocides and combinations of biocides with the enzymatic composition of Example 1. The bacterial and yeast/mold counts in each sample were monitored over about 14 days.

[3] = system: yeast and mold; experiment: Mold and yeast counts in treated contaminated metalworking fluid samples; assay type: cell-based
Description: as §1

[4] = system: SRB; experiment: Hydrogen sulfide from containers with SRB-contaminated sugar beet pond water
Description: A leachate from a sugar beet pond contaminated with SRB was fed into three 5-gallon containers filled with a nutrient source, sulfate and water. The contents in each container consisted of about 500 mL of SRB-contaminated sugar beet pond water, about 3.84 liters of vinegar (about 5% acetic acid content) about 450 mL of 0.5 N sulfuric acid, about 150 g of sodium hydroxide to adjust the pH to about 6.8, the normal pH and enough additional water to achieve a total volume of about 5 gallons. Nitrogen gas was continuously passed through the each container to eliminate any oxygen and to provide a gas flow in which to measure hydrogen sulfide generated in each container. About 500 ppm of a 10% solution of sodium hypochlorite was added to one of the reactors. An identical amount hypochlorite was added to another reactor, along with about 500 ppm of the composition of Example 1. About 500 ppm of the composition of Example 1 was added to the third container (without hypochlorite). The hydrogen sulfide level in the nitrogen gas stream from each container was monitored over time. The container treated only with the composition of the invention went to zero hydrogen sulfide production over about seven days, and stayed at zero for about four days thereafter. The container treated with bleach alone went to zero within six days and remained at zero for less than one day. […] The hydrogen sulfide concentration from the container treated with both hypochlorite and the composition of Example 1 fell to zero over about 13 days and remained at zero for greater than eight days. From the data in FIG. 4, it is clear that the enzymatically active compositions of the invention can work cooperatively with inexpensive biocidal compositions such as hypochlorite to effectively extend the useful lifetime of inexpensive biocides such as hypochlorite.

[5] = system: Desulfovibrio vulgaris; experiment: Sulfide concentration in nitrogen stream from Desulfovibrio vulgaris cultures; assay type: cell-based; settings: about 10 mM sodium nitrate; decrease after about 9 hours
Description: Laboratory studies were conducted by growing cultures of Desulfovibrio vulgaris, available from NCIMB Ltd, Aberdeen, Scotland, UK as NCIMB 8303 (see Postgate, J. R., The Sulfate-Reducing Bacteria, 2nd Ed., Cambridge University Press, Cambridge; 1984) in 100 mL aliquots of mCSB containing 12 mM sodium sulfate, 30 mM sodium lactate and 10 mM sodium nitrate in one-liter serum bottles sealed with butyl rubber stoppers, which were flushed with nitrogen and autoclaved at about 120° C. prior to use. A 2% inoculum of freshly prepared D. vulgaris culture was added to the medium in each bottle and incubated at about 30° C. Each culture was grown to mid-log phase to achieve a sulfide concentration of about 12.2±1.4 mM before adding about 25 mL of an aqueous 100 ppm solution of the enzymic composition of Example 1 to each culture. Each culture was then sparged with 99.99% pure nitrogen gas and the pH was adjusted to 6.4 using a dilute solution of nitric acid. The sulfide concentration in the nitrogen stream from each culture bottle was monitored as a function of time.

[6] = about 500 ppm of each agent (hypochlorite as 10% solution), pH about 6.8

Compound	Minimum Concentration that prevents sulfide production [1] [mg/L]	Bacterial Counts ([2]; Day 0)	Bacterial Counts ([2]; Day 1) [bacteria/mL]	Bacterial Counts ([2]; Day 3) [bacteria/mL]	Bacterial Counts ([2]; Day 4) [bacteria/mL]	Bacterial Counts ([2]; Day 6) [bacteria/mL]	Bacterial Counts ([2]; Day 8)	Bacterial Counts ([2]; Day 10)	Bacterial Counts ([2]; Day 12)	Bacterial Counts ([2]; Day 14)	Mold and Yeast Counts ([3]; Day 0)	Mold and Yeast Counts ([3]; Day 1)	Mold and Yeast Counts ([3]; Day 3)	Mold and Yeast Counts ([3]; Day 4)	Mold and Yeast Counts ([3]; Day 6)	Mold and Yeast Counts ([3]; Day 8)	Mold and Yeast Counts ([3]; Day 10)	Mold and Yeast Counts ([3]; Day 12)	Mold and Yeast Counts ([3]; Day 14)	also measured
O=CCCCC=O [Glutaraldehyde]	500	–	–	–	–	–	–	–	–	–	–	–	–	–	–	–	–	–	–	–
[O]=[Mo](=[O])([O-])[O-] [Molybdate]	120	–	–	–	–	–	–	–	–	–	–	–	–	–	–	–	–	–	–	–
O=NO [Nitrite]	230	–	–	–	–	–	–	–	–	–	–	–	–	–	–	–	–	–	–	–
OCCN1CN(CCO)CN(CCO)C1 [Sample 3, hexahydro-1,3,5-tris(2-hydroxyethyl)-s-triazine]	–	>10^7 bacteria/mL	<100	<100	100	1000	10^4 bacteria/mL	>10^7 bacteria/mL	10^6 bacteria/mL	>10^7 bacteria/mL	10^4	0	0	0	10	10	10^3	10^4	10^3	–
OCCN1CN(CCO)CN(CCO)C1 [Sample 4, hexahydro-1,3,5-tris(2-hydroxyethyl)-s-triazine]	–	>10^7 bacteria/mL	<100	100	100	1000	10^5 bacteria/mL	>10^7 bacteria/mL	>10^7 bacteria/mL	>10^7 bacteria/mL	10^3	0	0	0	0	100	10	100	100	–
CCCCNC(=O)OCC#CI [Sample 7, 3-iodo-2-propynyl butyl carbamate]	–	>10^7 bacteria/mL	<100	<100	100	100	100 bacteria/mL	1000 bacteria/mL	10^4 bacteria/mL	10^5 bacteria/mL	10^3	0	0	0	0	100	10	100	10^3	–
CCCCNC(=O)OCC#CI [Sample 8, 3-iodo-2-propynyl butyl carbamate]	–	>10^7 bacteria/mL	<100	<100	100	100	100 bacteria/mL	10^4 bacteria/mL	10^5 bacteria/mL	>10^7 bacteria/mL	10^4	0	0	0	100	10^3	10^3	10^3	10^3	–
OCl [hypochlorite, sodium hypochlorite]	–	–	–	–	–	–	–	–	–	–	–	–	–	–	–	–	–	–	–	time hydrogen sulfide stayed at zero [4, 6]: less than one; time to zero hydrogen sulfide production [4, 6]: six; additional suppression of hydrogen sulfide production ([4]; after another identical dose of hypochlorite): less than one
O=[N+]([O-])[O-].[Na+] [sodium nitrate]	–	–	–	–	–	–	–	–	–	–	–	–	–	–	–	–	–	–	–	extent of decrease in sulfide production relative to the decrease observed with the composition of Example 1 [5]: 10-15%
Benzalkonium chloride	50	–	–	–	–	–	–	–	–	–	–	–	–	–	–	–	–	–	–	–
tetrakis(hydroxymethyl)phosphonium sulfate [Sample 13]	–	>10^7 bacteria/mL	<100	<100	100	1000	1000 bacteria/mL	>10^5 bacteria/mL	10^6 bacteria/mL	>10^7 bacteria/mL	10^3	0	0	0	0	100	10	100	10^3	–
tetrakis(hydroxymethyl)phosphonium sulfate [Sample 14]	–	>10^7 bacteria/mL	<100	100	100	1000	10^5 bacteria/mL	>10^7 bacteria/mL	>10^7 bacteria/mL	>10^7 bacteria/mL	10^4	0	0	0	100	10^3	10^3	10^3	10^3	–
